Here are results for 19 compounds from patent publication US9765065B2, “Therapeutic substituted cyclopentanes” (ALLERGAN, INC., priority 2007, dated 2017).

Assay [1] deals with T1, EP2 (Homo sapiens, UniProt P43116). Briefly: EP2 cAMP. Format: cell-based. From the text:
(§1) U.S. patent application Ser. No. 11/553,143, filed on Oct. 26, 2006, incorporated by reference herein in its entirety, describes the methods used to obtain the in vitro data in the table below.

The target of assay [2] is T1, EP2. Briefly: EP2 binding Ki.
From the text: as §1

The target of assay [3] is T1, EP2. As to the kind of experiment: EP2 flipr. Format: cell-based.
From the text: as §1

In assay [4] the target is T2, EP4 (Homo sapiens, UniProt P35408). Briefly: EP4 binding Ki.
From the text: as §1

Assay [5] has as its target T2, EP4. Briefly: EP4 flipr. Type of assay: cell-based.
From the text: as §1

The target in assay [6] is T3, hEP3A (Homo sapiens, UniProt P43115).
T3 sequence (P43115 1-390): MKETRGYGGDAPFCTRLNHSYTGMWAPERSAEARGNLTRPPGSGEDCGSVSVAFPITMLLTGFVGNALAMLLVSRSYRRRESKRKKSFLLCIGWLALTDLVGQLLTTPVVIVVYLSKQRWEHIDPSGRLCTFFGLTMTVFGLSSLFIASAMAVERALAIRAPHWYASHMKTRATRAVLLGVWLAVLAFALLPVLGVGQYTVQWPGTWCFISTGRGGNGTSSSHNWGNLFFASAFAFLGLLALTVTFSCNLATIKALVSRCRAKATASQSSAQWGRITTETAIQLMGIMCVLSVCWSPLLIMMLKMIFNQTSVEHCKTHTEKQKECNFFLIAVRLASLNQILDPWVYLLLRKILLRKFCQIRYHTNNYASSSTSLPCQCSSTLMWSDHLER
Briefly: Other receptors hEP3A. Type of assay: cell-based.
From the text: as §1

T1 sequence (P43116 whole entry): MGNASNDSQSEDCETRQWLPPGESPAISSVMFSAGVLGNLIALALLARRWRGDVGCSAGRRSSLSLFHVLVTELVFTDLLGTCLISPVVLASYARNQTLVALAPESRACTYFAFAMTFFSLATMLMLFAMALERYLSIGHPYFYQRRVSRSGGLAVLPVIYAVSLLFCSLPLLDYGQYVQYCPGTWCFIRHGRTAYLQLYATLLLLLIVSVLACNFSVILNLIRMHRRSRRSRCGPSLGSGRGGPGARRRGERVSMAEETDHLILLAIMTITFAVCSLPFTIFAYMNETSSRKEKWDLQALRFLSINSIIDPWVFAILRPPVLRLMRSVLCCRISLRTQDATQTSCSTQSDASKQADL
T2 sequence (P35408 whole entry): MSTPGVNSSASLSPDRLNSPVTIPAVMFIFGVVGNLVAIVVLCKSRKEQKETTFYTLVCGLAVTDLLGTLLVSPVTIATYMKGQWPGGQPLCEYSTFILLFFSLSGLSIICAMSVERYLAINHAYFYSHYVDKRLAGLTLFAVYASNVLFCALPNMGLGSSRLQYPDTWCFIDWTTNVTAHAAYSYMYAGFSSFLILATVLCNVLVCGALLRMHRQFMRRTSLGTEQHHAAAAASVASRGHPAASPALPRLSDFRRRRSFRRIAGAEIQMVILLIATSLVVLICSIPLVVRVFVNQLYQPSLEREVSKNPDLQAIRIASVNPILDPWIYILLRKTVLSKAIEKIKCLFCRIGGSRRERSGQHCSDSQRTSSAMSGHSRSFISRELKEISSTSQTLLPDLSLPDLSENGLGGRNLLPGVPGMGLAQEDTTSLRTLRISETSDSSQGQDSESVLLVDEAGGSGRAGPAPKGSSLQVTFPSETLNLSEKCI

For the compound `O=C(O)c1ccc(CCC[C@@H]2[C@@H](C#Cc3cc(Cl)cc(Cl)c3)[C@H](O)C[C@H]2Cl)s1` [Example 25, 5-(3-((1R,2S,3R,5R)-5-chloro-2-((3,5-dichlorophenyl)ethynyl)-3-hydroxycyclopentyl)propyl)thiophene-2-carboxylic acid], the results for the EC50 in assay [1], in assay [3] and in assay [5] were 0.09 nM, 133 nM and 1910 nM, respectively. The Ki is under 0.08 nM in assay [2] and 466 nM in assay [4].
As for `O=C(O)c1csc(SCC[C@@H]2[C@@H](/C=C/c3cc(Cl)cc(Cl)c3)[C@H](O)C[C@H]2Cl)n1` [Example 14, 2-(2-((1R,2R,3R,5R)-5-chloro-2-(3,5-dichlorostyryl)-3-hydroxycyclopentyl)ethylthio)thiazole-4-carboxylic acid], the EC50 amounted to 0.04 nM in assay [1], 7 nM in assay [3], 3880 nM in assay [6] and 3460 nM in assay [5]. The Ki was 1.2 nM in assay [2] and 616 nM in assay [4].
Turning to `O=C(O)c1ccc(CCC[C@@H]2C(=O)C[C@@H](O)[C@@H]2C#Cc2ccccc2)s1` [Example 18, 5-(3-((1S,2S,3R)-3-hydroxy-5-oxo-2-(phenylethynyl)cyclopentyl)propyl)thiophene-2-carboxylic acid], the figures for the EC50 in assay [1], in assay [3] and in assay [5] were 0.6 nM, 22 nM and 3220 nM, respectively. The Ki in assay [2] was found to be 30 nM; in assay [4] it was 1790 nM.
Turning to `Cc1cc(C)cc(/C=C/[C@@H]2[C@@H](CCCc3ccc(C(=O)O)s3)[C@H](Cl)C[C@H]2O)c1` [Example 8, 5-(3-((1R,2R,3R,5R)-5-chloro-2-(3,5-dimethylstyryl)-3-hydroxycyclopentyl)propyl)thiophene-2-carboxylic acid], the figures for the EC50 in assay [1], in assay [3] and in assay [5] were 1.4 nM, 328 nM and 10000 nM, respectively. Besides, the Ki in assay [2] turned out to be 8 nM; in assay [4] it was 86 nM.
On to `O=C(O)c1ccc(CCC[C@@H]2[C@@H](C#Cc3ccsc3)[C@H](O)C[C@H]2Cl)s1` [Example 29, 5-(3-((1R,2S,3R,5R)-5-chloro-3-hydroxy-2-(thiophen-3-ylethynyl)cyclopentyl)propyl)thiophene-2-carboxylic acid], for which the EC50 in assay [1] is 3.3 nM; in assay [5] it was 5910 nM. Also, the values for the Ki in assay [2] and in assay [4] were 64 nM and 1870 nM, respectively.
Consider `C/C=C/c1cc(Cl)cc(/C=C/[C@@H]2[C@@H](CCCc3ccc(C(=O)O)s3)[C@H](Cl)C[C@H]2O)c1` [Example 10, 5-(3-((1R,2R,3R,5R)-5-chloro-2-((E)-3-chloro-5-((E)-prop-1-enyl)styryl)-3-hydroxycyclopentyl)propyl)thiophene-2-carboxylic acid], for which the EC50 is 0.1 nM in assay [1], 1640 nM in assay [3] and over 10000 nM in assay [5]. For the same compound, the Ki in assay [2] worked out at 1.4 nM; in assay [4] it was 90 nM.
As to `O=C(O)c1ccc(CCC[C@@H]2[C@@H](C#Cc3cccnc3)[C@H](O)C[C@H]2Cl)s1` [Example 31, 5-(3-((1R,2S,3R,5R)-5-chloro-3-hydroxy-2-(pyridin-3-ylethynyl)cyclopentyl)propyl)thiophene-2-carboxylic acid], the results for the EC50 in assay [1], in assay [3] and in assay [5] were 0.3 nM, 2 nM and 4200 nM, respectively. In addition, the results for the Ki in assay [2] and in assay [4] were 4 nM and 1440 nM, respectively.
`O=C(O)c1ccc(CCC[C@@H]2[C@@H](C#Cc3ccccc3)[C@H](O)C[C@H]2C(F)(F)F)s1` (single isomer, unassigned) [Example 24]: the EC50 in assay [1] amounted to 4 nM; in assay [3], 107 nM. In assay [2], this compound had a Ki of 41 nM.
Take `O=C(O)c1ccc(CCC[C@@H]2[C@@H](/C=C/c3cncc(Cl)c3)[C@H](O)C[C@H]2Cl)s1` [Example 3, 5-(3-((1R,2R,3R,5R)-5-chloro-2-((E)-2-(5-chloropyridin-3-yl)vinyl)-3-hydroxycyclopentyl)propyl)-thiophene-2-carboxylic acid]: the figures for the EC50 in assay [1], in assay [3] and in assay [5] were 1.3 nM, 101 nM and 15900 nM, respectively. Moreover, the Ki was determined as 10 nM in assay [2] and 3500 nM in assay [4].
Take `N#C[C@@H]1C[C@@H](O)[C@H](C#Cc2ccccc2)[C@H]1CCCc1ccc(C(=O)O)s1` [Example 22, 5-(3-((1S,2S,3R,5R)-5-cyano-3-hydroxy-2-(phenylethynyl)cyclopentyl)propyl)thiophene-2-carboxylic acid]: the EC50 in assay [1] is 0.18 nM; in assay [3], 235 nM; in assay [6], over 10000 nM; in assay [5], 21200 nM. Further, the values for the Ki in assay [2] and in assay [4] were 13 nM and 587 nM, respectively.
As to `C/C=C/c1cc(Cl)cc(/C=C\[C@@H]2[C@@H](CCCc3ccc(C(=O)O)s3)[C@H](Cl)C[C@H]2O)c1` [Example 11, 5-(3-((1R,2R,3R,5R)-5-chloro-2-((Z)-3-chloro-5-((E)-prop-1-enyl)styryl)-3-hydroxycyclopentyl)propyl)thiophene-2-carboxylic acid], the EC50 in assay [1] was determined as 12 nM; in assay [3] it was 2180 nM; in assay [5] it was 6460 nM. Moreover, the Ki in assay [2] came out at 24 nM; in assay [4], 239 nM.
The matching figures for `CCc1cccc(C#C[C@@H]2[C@@H](CCCc3ccc(C(=O)O)s3)[C@H](Cl)C[C@H]2O)c1` [Example 26, 5-(3-((1R,2S,3R,5R)-5-chloro-2-((3-ethylphenyl)ethynyl)-3-hydroxycyclopentyl)propyl)thiophene-2-carboxylic acid]: 0.08 nM, 56 nM, 616 nM, 0.3 nM and 316 nM.
Consider `O=C(O)c1ccc(CCC[C@@H]2[C@@H](C#Cc3cccc(CCCO)c3)[C@H](O)C[C@H]2Cl)s1` [Example 33, 5-(3-((1R,2S,3R,5R)-5-chloro-3-hydroxy-2-((3-(3-hydroxypropyl)phenyl)ethynyl)cyclopentyl)propyl)thiophene-2-carboxylic acid], for which the figures for the EC50 in assay [1] and in assay [5] were 0.22 nM and 8990 nM, respectively. Further, the values for the Ki in assay [2] and in assay [4] were 2 nM and 1520 nM, respectively.
Regarding `C=CCCc1cccc(C#C[C@@H]2[C@@H](CCCc3ccc(C(=O)O)s3)[C@H](Cl)C[C@H]2O)c1` [Example 27, 5-(3-((1R,2S,3R,5R)-2-((3-(but-3-enyl)phenyl)ethynyl)-5-chloro-3-hydroxycyclopentyl)propyl)thiophene-2-carboxylic acid], the EC50 in assay [1] is 0.03 nM; in assay [3] it was 19 nM; in assay [5], 11000 nM. The Ki turned out to be 1 nM in assay [2] and 436 nM in assay [4].
For `O=C(O)c1ccc(CCC[C@@H]2[C@@H](C#Cc3ccncc3)[C@H](O)C[C@H]2Cl)s1` [Example 32, 5-(3-((1R,2S,3R,5R)-5-chloro-3-hydroxy-2-(pyridin-4-ylethynyl)cyclopentyl)propyl)thiophene-2-carboxylic acid], in that order: 7 nM, 306 nM, over 10000 nM, 79 nM and 8670 nM.
As to `O=C(O)c1ccc(CCC[C@@H]2[C@@H](C#Cc3ccccn3)[C@H](O)C[C@H]2Cl)s1` [Example 30, 5-(3-((1R,2S,3R,5R)-5-chloro-3-hydroxy-2-(pyridin-2-ylethynyl)cyclopentyl)propyl)thiophene-2-carboxylic acid], the EC50 is 0.2 nM in assay [1], 3 nM in assay [3] and over 10000 nM in assay [5]. Further, the Ki in assay [2] was determined as 11 nM; in assay [4] it was 2140 nM.
With `O=C(O)c1ccc(CCC[C@H]2C(C(F)(F)F)C[C@@H](O)[C@@H]2C#Cc2ccccc2)s1` (single isomer, unassigned) [Example 23], the EC50 in assay [1] is 3 nM; in assay [3], 79 nM; in assay [6], 7100 nM. For the same compound, the affinity in assay [2], expressed as Ki, was 30 nM.
On to `O=C(O)c1ccc(CCC[C@@H]2[C@@H](/C=C/c3cc(Cl)nc(Cl)c3)[C@H](O)C[C@H]2Cl)s1` [Example 4, 5-(3-((1R,2R,3R,5R)-5-chloro-2-((E)-2-(2,6-dichloropyridin-4-yl)vinyl)-3-hydroxycyclopentyl)propyl)-thiophene-2-carboxylic acid], for which the EC50 came out at 0.09 nM in assay [1], 44 nM in assay [3] and 15900 nM in assay [5]. The Ki in assay [2] is 2.3 nM; in assay [4] it was 162 nM.
Turning to `CCCc1cc(/C=C/[C@@H]2[C@@H](CCCc3ccc(C(=O)O)s3)[C@H](Cl)C[C@H]2O)ccn1` [Example 13, 5-(3-((1R,2R,3R,5R)-5-chloro-3-hydroxy-2-((E)-2-(2-propylpyridin-4-yl)vinyl)cyclopentyl)propyl)thiophene-2-113 carboxylic acid], the EC50 in assay [1] is 0.4 nM; in assay [3] it was over 10000 nM; in assay [5] it was over 10000 nM. Further, the results for the Ki in assay [2] and in assay [4] were 2 nM and 193 nM, respectively.
